Laboratory results published in BindingDB's records for patent US20250026742 (Suzhou Ark Biopharmaceutical Co., 2025).

Target: Serine/threonine-protein kinase ATR (Homo sapiens, UniProt Q13535)
Assay: ATR Enzyme Activity Inhibition Assay
Experimental: Prepare various buffer systems required for the experiment:1. […] Prepare detection buffer: Dilute each of the anti-phospho-p53-Eu cryptate (Cisbio, Cat #61P08KA) and anti-GST-d2 (Cisbio, Cat #61GSTDLB) to 1 unit using HTRF detection buffer (Cisbio, Cat #62SDBRDF).Powdered compounds were dissolved in DMSO to from a stock solution at a concentration of 10 mM. The solution of compounds to be tested at a concentration of […] was performed a 3-fold dilution for 10 concentrations with DMSO. […] 5 μL of ATR was added to each well accordingly. Each well is incubated at 25° C. for 10 min, added with 5 μL of reaction substrate, incubated at 25° C. for 90 min and added with 10 μL of detection solution.

Serine/threonine-protein kinase ATR, sequence (Q13535 whole entry): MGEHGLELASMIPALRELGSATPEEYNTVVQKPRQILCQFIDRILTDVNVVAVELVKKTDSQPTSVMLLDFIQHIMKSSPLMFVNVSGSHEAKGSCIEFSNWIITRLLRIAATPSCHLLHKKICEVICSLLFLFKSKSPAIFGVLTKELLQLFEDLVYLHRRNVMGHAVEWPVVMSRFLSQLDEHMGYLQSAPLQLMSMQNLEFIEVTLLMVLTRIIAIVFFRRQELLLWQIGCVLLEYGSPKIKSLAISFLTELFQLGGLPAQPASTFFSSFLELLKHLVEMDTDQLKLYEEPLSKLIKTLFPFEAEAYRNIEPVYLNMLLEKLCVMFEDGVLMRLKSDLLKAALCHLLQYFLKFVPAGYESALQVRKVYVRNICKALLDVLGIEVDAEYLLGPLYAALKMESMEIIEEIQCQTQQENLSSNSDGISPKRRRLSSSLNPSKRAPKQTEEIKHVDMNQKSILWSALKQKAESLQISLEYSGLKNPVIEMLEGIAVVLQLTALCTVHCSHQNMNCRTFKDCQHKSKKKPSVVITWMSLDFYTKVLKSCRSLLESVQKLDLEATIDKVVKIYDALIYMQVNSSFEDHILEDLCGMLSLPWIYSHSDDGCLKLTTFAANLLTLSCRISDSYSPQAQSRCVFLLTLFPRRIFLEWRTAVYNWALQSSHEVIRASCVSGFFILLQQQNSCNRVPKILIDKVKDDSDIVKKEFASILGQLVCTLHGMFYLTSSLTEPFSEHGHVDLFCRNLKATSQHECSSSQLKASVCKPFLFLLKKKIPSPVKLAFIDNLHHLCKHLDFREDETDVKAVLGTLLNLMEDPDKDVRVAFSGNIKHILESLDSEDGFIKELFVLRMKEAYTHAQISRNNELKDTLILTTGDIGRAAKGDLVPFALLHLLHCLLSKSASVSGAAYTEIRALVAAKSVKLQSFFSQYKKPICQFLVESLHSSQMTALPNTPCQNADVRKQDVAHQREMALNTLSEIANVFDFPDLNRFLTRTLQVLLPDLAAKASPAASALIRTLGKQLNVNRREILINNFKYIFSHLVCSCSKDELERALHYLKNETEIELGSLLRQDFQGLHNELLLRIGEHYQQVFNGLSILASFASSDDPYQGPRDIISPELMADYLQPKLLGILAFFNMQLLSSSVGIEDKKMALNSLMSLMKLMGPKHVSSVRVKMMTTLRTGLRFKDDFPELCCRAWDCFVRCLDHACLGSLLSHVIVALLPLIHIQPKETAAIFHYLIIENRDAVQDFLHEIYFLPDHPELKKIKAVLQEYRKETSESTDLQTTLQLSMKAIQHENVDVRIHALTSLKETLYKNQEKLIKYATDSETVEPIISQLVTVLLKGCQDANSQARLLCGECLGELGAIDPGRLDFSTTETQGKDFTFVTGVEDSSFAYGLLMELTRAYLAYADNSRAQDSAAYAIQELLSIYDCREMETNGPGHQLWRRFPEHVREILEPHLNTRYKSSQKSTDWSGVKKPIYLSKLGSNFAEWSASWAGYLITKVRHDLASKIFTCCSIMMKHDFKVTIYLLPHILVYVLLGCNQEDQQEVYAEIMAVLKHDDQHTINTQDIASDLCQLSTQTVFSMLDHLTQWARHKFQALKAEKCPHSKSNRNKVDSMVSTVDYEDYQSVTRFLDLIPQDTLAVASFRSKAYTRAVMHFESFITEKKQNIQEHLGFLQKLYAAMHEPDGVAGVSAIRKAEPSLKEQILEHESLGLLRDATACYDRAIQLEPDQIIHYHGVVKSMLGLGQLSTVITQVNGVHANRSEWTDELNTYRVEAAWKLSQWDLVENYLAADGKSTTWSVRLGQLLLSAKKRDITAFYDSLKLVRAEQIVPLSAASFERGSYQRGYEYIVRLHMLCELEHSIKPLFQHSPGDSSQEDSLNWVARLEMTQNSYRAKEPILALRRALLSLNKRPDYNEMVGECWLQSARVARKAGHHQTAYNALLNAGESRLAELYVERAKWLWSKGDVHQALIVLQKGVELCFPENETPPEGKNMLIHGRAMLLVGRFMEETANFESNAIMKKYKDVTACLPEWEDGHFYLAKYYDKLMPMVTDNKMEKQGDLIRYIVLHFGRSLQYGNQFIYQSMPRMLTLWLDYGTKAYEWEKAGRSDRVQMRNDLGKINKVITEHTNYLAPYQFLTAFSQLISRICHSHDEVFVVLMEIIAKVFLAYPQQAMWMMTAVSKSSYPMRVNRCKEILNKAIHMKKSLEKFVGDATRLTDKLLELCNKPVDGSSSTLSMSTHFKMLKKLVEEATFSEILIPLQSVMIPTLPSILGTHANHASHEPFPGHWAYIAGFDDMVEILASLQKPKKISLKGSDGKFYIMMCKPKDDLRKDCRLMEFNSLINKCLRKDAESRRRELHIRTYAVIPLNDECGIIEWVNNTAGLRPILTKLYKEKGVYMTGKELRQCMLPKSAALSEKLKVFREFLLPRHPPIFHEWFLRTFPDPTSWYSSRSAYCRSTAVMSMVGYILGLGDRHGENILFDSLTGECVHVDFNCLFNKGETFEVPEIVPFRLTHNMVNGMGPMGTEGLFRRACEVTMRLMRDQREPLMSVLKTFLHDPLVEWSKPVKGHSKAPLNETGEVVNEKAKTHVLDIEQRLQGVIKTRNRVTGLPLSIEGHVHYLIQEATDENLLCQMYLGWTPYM

Structure (SMILES)	IC50
CC(=N)Nc1ccc(-c2cc(-c3nc(-c4ccc(S(=O)(=O)C(C)C)cc4)cnc3N)on2)cc1 [US20250026742, Example 29]	3.12 nM
CC(C)S(=O)(=O)c1ccc(-c2cnc(N)c(-c3cc(-c4ccc(CNC(N)=O)cc4)no3)n2)cc1 [US20250026742, Example 9]	1.83 nM
CN=S(C)(=O)c1ccc(-c2cnc(N)c(-c3cc(-c4ccc(CNC(=N)N)cc4)no3)n2)cc1 (stereo not drawn) [US20250026742, Example 12]	2.53 nM
